Test results: paper PMC6457931 (Science Advances, 2019)

Legend:
229E S protein = 229E S protein (Human coronavirus 229E, UniProt P15423); assay: cell-based; parameters: species or system HCoV-229E
NL63 S protein = NL63 S protein (Human coronavirus NL63, UniProt Q6Q1S2); assay: cell-based; parameters: species or system HCoV-NL63
[1] = system: S proteins of multiple HCoVs; assay type: cell-based
pseudotyped 229E = conditions: 48 h
pseudotyped NL63 = conditions: 48 h
pseudotyped OC43 = conditions: 48 h
OC43 = conditions: read-out: IC50, live OC43 infection; HCT-8 cells, 100 TCID50, day 5
NL63 = conditions: read-out: IC50, live NL63 infection; LLC-MK2 cells
OC43 S protein = OC43 S protein (Human coronavirus OC43, UniProt P36334); assay: cell-based; conditions: Inhibitory activity of peptides, IC50, HCoV-OC43 cell-cell fusion assay
Sequence of OC43 S protein (P36334 14-1336 limits assumed): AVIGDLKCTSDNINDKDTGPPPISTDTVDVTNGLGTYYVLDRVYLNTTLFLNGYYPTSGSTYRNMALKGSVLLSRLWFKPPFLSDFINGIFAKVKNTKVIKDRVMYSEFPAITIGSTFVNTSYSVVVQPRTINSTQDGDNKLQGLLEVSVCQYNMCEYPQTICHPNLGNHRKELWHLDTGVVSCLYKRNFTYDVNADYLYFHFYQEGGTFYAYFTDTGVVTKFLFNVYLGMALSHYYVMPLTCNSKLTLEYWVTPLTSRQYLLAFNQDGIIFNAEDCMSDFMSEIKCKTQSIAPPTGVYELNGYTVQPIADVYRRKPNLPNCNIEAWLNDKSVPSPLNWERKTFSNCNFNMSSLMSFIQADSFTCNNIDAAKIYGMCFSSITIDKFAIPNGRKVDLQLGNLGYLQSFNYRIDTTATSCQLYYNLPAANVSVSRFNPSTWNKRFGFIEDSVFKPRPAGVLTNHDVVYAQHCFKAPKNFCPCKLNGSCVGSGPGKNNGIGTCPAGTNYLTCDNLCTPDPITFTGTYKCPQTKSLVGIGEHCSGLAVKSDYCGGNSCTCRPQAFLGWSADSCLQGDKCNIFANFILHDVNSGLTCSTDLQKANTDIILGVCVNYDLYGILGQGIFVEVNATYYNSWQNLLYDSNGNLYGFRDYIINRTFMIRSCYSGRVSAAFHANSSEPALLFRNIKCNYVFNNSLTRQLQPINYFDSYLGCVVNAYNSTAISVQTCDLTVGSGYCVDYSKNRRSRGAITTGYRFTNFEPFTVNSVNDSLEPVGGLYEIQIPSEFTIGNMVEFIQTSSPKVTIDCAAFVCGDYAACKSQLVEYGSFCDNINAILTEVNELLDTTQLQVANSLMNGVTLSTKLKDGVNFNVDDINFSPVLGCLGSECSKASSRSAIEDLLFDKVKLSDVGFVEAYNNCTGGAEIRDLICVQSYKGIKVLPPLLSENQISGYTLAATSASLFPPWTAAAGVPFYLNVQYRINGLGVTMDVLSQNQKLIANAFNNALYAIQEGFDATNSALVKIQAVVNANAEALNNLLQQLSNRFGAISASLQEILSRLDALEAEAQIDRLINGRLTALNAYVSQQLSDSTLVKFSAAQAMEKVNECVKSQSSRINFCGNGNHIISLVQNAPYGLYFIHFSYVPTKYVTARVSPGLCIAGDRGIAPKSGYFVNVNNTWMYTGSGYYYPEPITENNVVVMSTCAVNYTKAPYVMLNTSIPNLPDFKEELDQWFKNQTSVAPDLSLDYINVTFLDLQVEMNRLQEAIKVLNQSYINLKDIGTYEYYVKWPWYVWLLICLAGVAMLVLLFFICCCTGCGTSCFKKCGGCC

[2] = biological target: HR1 domain of HCoV-229E S protein (residues 785 to 873) (HCoV-229E) (UniProt P15423)
Sequence of HR1 domain of HCoV-229E S protein (residues 785 to 873) (HCoV-229E) (P15423 785-873): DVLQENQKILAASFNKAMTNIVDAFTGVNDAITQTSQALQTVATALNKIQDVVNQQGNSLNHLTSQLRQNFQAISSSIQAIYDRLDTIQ

[3] = biological target: HR1 domain of MERS-CoV S protein (residues 984 to 1062) (MERS-CoV) (UniProt K9N5Q8)
Sequence of HR1 domain of MERS-CoV S protein (residues 984 to 1062) (MERS-CoV) (K9N5Q8 984-1062): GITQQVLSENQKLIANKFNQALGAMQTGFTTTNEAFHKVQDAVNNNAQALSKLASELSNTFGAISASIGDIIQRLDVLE

[4] = biological target: HR1 domain of SARS-CoV S protein (residues 892 to 970) (SARS-CoV) (UniProt P59594)
[5] = high or low dose, before and 1, 3, 5 days after final treatment, P > 0.05

Sequence of 229E S protein (P15423 16-1173 limits assumed): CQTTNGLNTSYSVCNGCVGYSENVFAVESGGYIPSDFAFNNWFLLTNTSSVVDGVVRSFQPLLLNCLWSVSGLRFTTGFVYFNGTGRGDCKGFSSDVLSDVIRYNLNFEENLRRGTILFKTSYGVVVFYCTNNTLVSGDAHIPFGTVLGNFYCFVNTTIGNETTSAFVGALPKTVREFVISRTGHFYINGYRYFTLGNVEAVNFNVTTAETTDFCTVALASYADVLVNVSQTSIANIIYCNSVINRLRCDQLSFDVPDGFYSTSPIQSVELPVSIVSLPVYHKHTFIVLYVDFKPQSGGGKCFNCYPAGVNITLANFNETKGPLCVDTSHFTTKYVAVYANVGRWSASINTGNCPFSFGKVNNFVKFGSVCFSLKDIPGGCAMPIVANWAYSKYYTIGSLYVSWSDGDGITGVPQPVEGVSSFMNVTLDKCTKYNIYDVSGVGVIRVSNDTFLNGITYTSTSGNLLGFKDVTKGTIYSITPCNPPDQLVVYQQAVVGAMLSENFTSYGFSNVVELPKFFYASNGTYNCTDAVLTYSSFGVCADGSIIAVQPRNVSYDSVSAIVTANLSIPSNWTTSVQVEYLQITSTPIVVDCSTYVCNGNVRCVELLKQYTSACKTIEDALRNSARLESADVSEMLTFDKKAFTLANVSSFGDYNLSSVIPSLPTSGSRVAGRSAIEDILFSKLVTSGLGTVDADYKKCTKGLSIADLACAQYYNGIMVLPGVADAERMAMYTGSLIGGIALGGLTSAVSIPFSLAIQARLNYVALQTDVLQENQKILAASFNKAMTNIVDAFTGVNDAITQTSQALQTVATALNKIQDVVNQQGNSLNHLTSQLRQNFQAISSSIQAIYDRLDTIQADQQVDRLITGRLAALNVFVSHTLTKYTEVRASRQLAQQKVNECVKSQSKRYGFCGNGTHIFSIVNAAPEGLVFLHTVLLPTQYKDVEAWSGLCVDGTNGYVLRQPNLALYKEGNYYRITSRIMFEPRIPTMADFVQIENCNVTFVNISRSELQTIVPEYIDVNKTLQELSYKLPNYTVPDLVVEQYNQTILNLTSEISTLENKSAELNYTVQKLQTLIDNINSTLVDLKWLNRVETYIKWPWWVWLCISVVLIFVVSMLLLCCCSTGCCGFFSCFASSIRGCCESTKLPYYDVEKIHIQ
Sequence of NL63 S protein (Q6Q1S2 19-1338 limits assumed): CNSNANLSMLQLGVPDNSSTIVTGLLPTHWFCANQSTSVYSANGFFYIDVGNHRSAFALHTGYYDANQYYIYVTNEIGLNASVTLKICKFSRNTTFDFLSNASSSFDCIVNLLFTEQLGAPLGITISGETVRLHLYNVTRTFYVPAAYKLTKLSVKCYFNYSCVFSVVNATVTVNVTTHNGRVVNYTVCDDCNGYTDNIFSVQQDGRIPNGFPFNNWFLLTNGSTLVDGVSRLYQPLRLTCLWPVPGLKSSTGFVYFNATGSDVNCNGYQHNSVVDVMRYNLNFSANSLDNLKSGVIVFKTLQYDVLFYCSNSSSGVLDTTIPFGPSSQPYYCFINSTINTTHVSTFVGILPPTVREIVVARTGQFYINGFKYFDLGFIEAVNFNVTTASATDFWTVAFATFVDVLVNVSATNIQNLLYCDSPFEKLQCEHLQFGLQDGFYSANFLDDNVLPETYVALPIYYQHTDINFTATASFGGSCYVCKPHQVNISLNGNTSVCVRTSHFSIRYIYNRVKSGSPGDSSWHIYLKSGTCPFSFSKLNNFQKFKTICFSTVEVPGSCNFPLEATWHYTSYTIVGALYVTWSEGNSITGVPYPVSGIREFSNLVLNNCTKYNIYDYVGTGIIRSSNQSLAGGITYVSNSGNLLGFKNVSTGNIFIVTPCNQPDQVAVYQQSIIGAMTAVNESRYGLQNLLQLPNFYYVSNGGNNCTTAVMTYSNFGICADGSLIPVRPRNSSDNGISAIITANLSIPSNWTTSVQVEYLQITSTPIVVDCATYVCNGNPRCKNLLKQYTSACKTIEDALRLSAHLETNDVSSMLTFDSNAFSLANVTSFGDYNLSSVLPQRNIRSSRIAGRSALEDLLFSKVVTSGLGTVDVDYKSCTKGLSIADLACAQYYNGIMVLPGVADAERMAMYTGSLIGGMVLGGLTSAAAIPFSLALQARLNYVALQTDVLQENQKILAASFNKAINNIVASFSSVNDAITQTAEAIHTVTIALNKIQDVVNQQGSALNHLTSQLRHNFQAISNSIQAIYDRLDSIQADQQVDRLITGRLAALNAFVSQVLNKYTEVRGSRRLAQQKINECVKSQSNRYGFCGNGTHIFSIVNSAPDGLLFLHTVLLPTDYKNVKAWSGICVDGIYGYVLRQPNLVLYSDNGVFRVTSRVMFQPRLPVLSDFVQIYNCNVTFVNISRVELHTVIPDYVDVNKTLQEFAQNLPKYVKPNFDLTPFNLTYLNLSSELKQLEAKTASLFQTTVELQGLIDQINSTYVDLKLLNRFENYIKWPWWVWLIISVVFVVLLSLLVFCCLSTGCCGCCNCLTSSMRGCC

CC[C@H](C)[C@H](NC(=O)[C@H](C)NC(=O)[C@H](CC(=O)O)NC(=O)[C@H](CC(N)=O)NC(=O)[C@@H](NC(=O)CNC(=O)[C@@H](NC(=O)[C@H](Cc1ccccc1)NC(=O)[C@H](C)NC(=O)[C@H](CC(=O)O)NC(=O)[C@@H](NC(=O)[C@@H](NC(=O)[C@H](CC(N)=O)NC(=O)[C@@H](NC(=O)[C@H](CCSC)NC(=O)[C@H](C)NC(=O)[C@H](CCCCN)NC(=O)[C@H](CC(N)=O)NC(=O)[C@H](Cc1ccccc1)NC(=O)[C@H](CO)NC(=O)[C@H](C)NC(=O)[C@H](C)N)[C@@H](C)O)[C@@H](C)CC)C(C)C)[C@@H](C)O)C(C)C)C(=O)N[C@H](C(=O)N[C@@H](CCC(N)=O)C(=O)N[C@H](C(=O)N[C@@H](CO)C(=O)N[C@@H](CCC(N)=O)C(=O)N[C@@H](C)C(=O)N[C@@H](CC(C)C)C(=O)N[C@@H](CCC(N)=O)C(=O)N[C@H](C(=O)N[C@H](C(=O)N[C@@H](C)C(=O)N[C@H](C(=O)N[C@@H](C)C(=O)N[C@@H](CC(C)C)C(=O)N[C@@H](CC(N)=O)C(=O)N[C@@H](CCCCN)C(=O)N[C@H](C(=O)N[C@@H](CCC(N)=O)C(=O)N[C@@H](CC(=O)O)C(=O)N[C@H](C(=O)N[C@H](C(=O)N[C@@H](CC(N)=O)C(=O)N[C@@H](CCC(N)=O)C(=O)N[C@@H](CCC(N)=O)C(=O)NCC(=O)N[C@@H](CC(N)=O)C(=O)N[C@@H](CO)C(=O)N[C@@H](CC(C)C)C(=O)N[C@@H](CC(N)=O)C(=O)N[C@@H](Cc1c[nH]cn1)C(=O)N[C@@H](CC(C)C)C(=O)N[C@H](C(=O)N[C@@H](CO)C(=O)N[C@@H](CCC(N)=O)C(=O)O)[C@@H](C)O)C(C)C)C(C)C)[C@@H](C)CC)[C@@H](C)O)C(C)C)[C@@H](C)O)[C@@H](C)O)[C@@H](C)O [229E-HR1P]
Inhibitory effects on 229E-S-mediated cell-cell fusion (229E S protein): moderate inhibitory effects | Inhibitory effects on NL63-S-mediated cell-cell fusion (NL63 S protein): moderate inhibitory effects

CC[C@H](C)[C@H](NC(=O)[C@H](CC(N)=O)NC(=O)[C@H](CC(=O)O)NC(=O)[C@@H](NC(=O)[C@H](CC(C)C)NC(=O)[C@@H](NC(=O)[C@H](CCC(N)=O)NC(=O)[C@H](CC(C)C)NC(=O)[C@H](CCCCN)NC(=O)[C@H](CCC(N)=O)NC(=O)[C@@H](NC(=O)[C@@H](NC(=O)[C@H](Cc1ccc(O)cc1)NC(=O)[C@H](CC(N)=O)NC(=O)[C@H](CC(C)C)NC(=O)[C@H](CCC(=O)O)NC(=O)[C@H](C)NC(=O)[C@H](CO)NC(=O)[C@H](CCCCN)NC(=O)[C@H](CC(N)=O)NC(=O)[C@H](CCC(=O)O)NC(=O)[C@H](CC(C)C)NC(=O)[C@@H](NC(=O)[C@H](CO)NC(=O)[C@@H](NC(=O)[C@H](CCC(=O)O)NC(=O)[C@H](CO)NC(=O)[C@@H](NC(=O)[C@H](CC(C)C)NC(=O)[C@H](CC(N)=O)NC(=O)[C@H](CC(C)C)NC(=O)[C@@H](NC(=O)[C@@H](NC(=O)[C@H](CCC(N)=O)NC(=O)[C@H](CC(N)=O)NC(=O)[C@H](Cc1ccc(O)cc1)NC(=O)[C@H](CCC(N)=O)NC(=O)[C@H](CCC(=O)O)NC(=O)[C@@H](NC(=O)[C@@H](N)C(C)C)C(C)C)[C@@H](C)O)[C@@H](C)CC)[C@@H](C)O)[C@@H](C)CC)[C@@H](C)O)[C@@H](C)O)C(C)C)[C@@H](C)O)[C@@H](C)CC)C(=O)N[C@@H](CC(N)=O)C(=O)N[C@@H](CO)C(=O)N[C@H](C(=O)N[C@@H](CC(C)C)C(=O)N[C@H](C(=O)N[C@@H](CC(=O)O)C(=O)N[C@@H](CC(C)C)C(=O)N[C@@H](CCCCN)C(=O)N[C@@H](Cc1c[nH]c2ccccc12)C(=O)N[C@@H](CC(C)C)C(=O)O)C(C)C)[C@@H](C)O [229E-HR2P]
Inhibitory activity against β-HCoVs (MERS-CoV, SARS-CoV, OC43) S-mediated fusion [1]: no effective inhibitory activity | IC50 (229E): 560 nM

CC[C@H](C)[C@H](NC(=O)[C@H](C)NC(=O)[C@H](CCC(=O)O)NC(=O)[C@H](CCC(=O)O)NC(=O)[C@H](CC(C)C)NC(=O)[C@H](CCCCN)NC(=O)[C@H](CCCCN)NC(=O)[C@H](CCSC)NC(=O)[C@H](CCC(=O)O)NC(=O)[C@H](Cc1ccc(O)cc1)NC(=O)[C@H](CCC(=O)O)NC(=O)[C@H](CC(C)C)NC(=O)[C@H](CC(=O)O)NC(=O)[C@H](CC(C)C)NC(=O)[C@H](Cc1ccccc1)NC(=O)[C@@H](NC(=O)[C@@H](NC(=O)[C@H](CC(N)=O)NC(=O)[C@@H](NC(=O)[C@H](CCC(N)=O)NC(=O)[C@H](CC(=O)O)NC(=O)[C@H](CC(C)C)NC(=O)[C@@H](N)CO)[C@@H](C)CC)C(C)C)[C@@H](C)O)C(=O)N[C@@H](CCCCN)C(=O)N[C@@H](CCCCN)C(=O)N[C@@H](CC(C)C)C(=O)N[C@@H](CCC(=O)O)C(=O)N[C@@H](CCC(=O)O)C(=O)N[C@@H](CO)C(=O)N[C@@H](Cc1ccc(O)cc1)C(=O)N[C@H](C(=O)N[C@@H](CC(=O)O)C(=O)N[C@@H](CC(C)C)C(=O)N[C@@H](CCCCN)C(=O)N[C@@H](CCC(=O)O)C(=O)N[C@@H](CC(C)C)C(=O)O)[C@@H](C)CC [EK1]
IC50 (pseudotyped 229E): 3.35 µM | IC50 (pseudotyped NL63): 6.02 µM | IC50 (pseudotyped OC43): 1810 nM | IC50 (OC43): 620 nM | IC50 (229E): 690 nM | IC50 (NL63): 480 nM | EK1-specific antibodies in sera (ELISA) (2 weeks after intranasal administration): No EK1-specific antibodies were detected | weight gain/loss compared to PBS-treated mice (20 or 100 mg/kg intranasal every day for 1 week, followed 2 weeks): no apparent difference | histopathology of lung, liver, kidney, and spleen sections (hematoxylin and eosin, 4 weeks after administration): no pathological abnormality | alanine aminotransferase (ALT) in sera versus PBS-treated group [5]: no significant difference | creatinine in sera versus PBS-treated group [5]: no significant difference

CC[C@H](C)[C@H](NC(=O)[C@H](CC(C)C)NC(=O)CNC(=O)[C@H](CCC(N)=O)NC(=O)[C@H](CC(C)C)NC(=O)[C@H](CCC(=O)O)NC(=O)[C@@H](NC(=O)[C@@H](NC(=O)[C@@H](NC(=O)[C@H](CCC(N)=O)NC(=O)[C@H](Cc1ccccc1)NC(=O)[C@H](CC(C)C)NC(=O)[C@H](CO)NC(=O)[C@H](C)NC(=O)[C@@H](NC(=O)[C@H](CCCCN)NC(=O)[C@H](C)NC(=O)[C@H](CCC(=O)O)NC(=O)[C@H](CC(C)C)NC(=O)[C@H](CCC(N)=O)NC(=O)[C@H](CCCCN)NC(=O)[C@H](CC(C)C)NC(=O)[C@H](CCC(=O)O)NC(=O)[C@H](CO)NC(=O)[C@H](CO)NC(=O)[C@H](CC(C)C)NC(=O)[C@H](CC(N)=O)NC(=O)[C@H](CC(C)C)NC(=O)[C@H](Cc1ccc(O)cc1)NC(=O)[C@@H](NC(=O)[C@H](CC(C)C)NC(=O)[C@H](CC(N)=O)NC(=O)[C@H](Cc1ccccc1)NC(=O)[C@@H]1CCCN1C(=O)[C@@H](NC(=O)[C@H](CC(C)C)NC(=O)[C@@H](N)CC(=O)O)[C@@H](C)O)[C@@H](C)O)[C@@H](C)O)[C@@H](C)O)[C@@H](C)O)C(C)C)C(=O)N[C@@H](CC(=O)O)C(=O)N[C@@H](CCC(N)=O)C(=O)N[C@H](C(=O)N[C@@H](CC(N)=O)C(=O)N[C@@H](CO)C(=O)N[C@H](C(=O)N[C@@H](Cc1ccc(O)cc1)C(=O)N[C@H](C(=O)N[C@@H](CC(=O)O)C(=O)N[C@@H](CC(C)C)C(=O)N[C@@H](CCCCN)C(=O)N[C@@H](CC(C)C)C(=O)N[C@@H](CC(C)C)C(=O)O)C(C)C)[C@@H](C)O)[C@@H](C)CC [NL63-HR2P]
Inhibitory activity against β-HCoVs (MERS-CoV, SARS-CoV, OC43) S-mediated fusion [1]: no effective inhibitory activity

CC[C@H](C)[C@H](NC(=O)[C@H](CC(=O)O)NC(=O)[C@H](CCCCN)NC(=O)[C@H](CC(C)C)NC(=O)[C@H](CC(N)=O)NC(=O)[C@@H](NC(=O)[C@H](Cc1ccc(O)cc1)NC(=O)[C@H](CO)NC(=O)[C@H](CCC(N)=O)NC(=O)[C@H](CC(N)=O)NC(=O)[C@H](CC(C)C)NC(=O)[C@@H](NC(=O)[C@H](CCCCN)NC(=O)[C@@H](NC(=O)[C@H](C)NC(=O)[C@H](CCC(=O)O)NC(=O)[C@H](CCC(N)=O)NC(=O)[C@H](CC(C)C)NC(=O)[C@H](CCCNC(=N)N)NC(=O)[C@H](CC(N)=O)NC(=O)[C@H](CCSC)NC(=O)[C@H](CCC(=O)O)NC(=O)[C@H](CC(=O)O)NC(=O)[C@H](CCC(N)=O)NC(=O)[C@H](CC(C)C)NC(=O)[C@H](CC(=O)O)NC(=O)[C@H](CC(C)C)NC(=O)[C@H](Cc1ccccc1)NC(=O)[C@@H](NC(=O)[C@@H](NC(=O)[C@H](CC(N)=O)NC(=O)[C@@H](NC(=O)[C@H](Cc1ccc(O)cc1)NC(=O)[C@H](CC(=O)O)NC(=O)[C@H](CC(C)C)NC(=O)[C@@H](N)CO)[C@@H](C)CC)C(C)C)[C@@H](C)O)[C@@H](C)CC)C(C)C)[C@@H](C)CC)C(=O)O [OC43-HR2P]
IC50 (229E S protein; Inhibitory activity of peptides, IC50, HCoV-229E cell-cell fusion assay): 840 nM | IC50 (NL63 S protein; Inhibitory activity of peptides, IC50, HCoV-NL63 cell-cell fusion assay): 940 nM | IC50 (OC43 S protein): 660 nM | IC50 (OC43): 930 nM

OC43-HR2P (peptide)
IC50 of inhibition of 229E S-mediated cell-cell fusion [2]: 0.84 µM | IC50 of inhibition of MERS-CoV S-mediated cell-cell fusion [3]: 0.39 µM | IC50 of inhibition of SARS-CoV S-mediated cell-cell fusion [4]: 0.54 µM
